# Test system: Mef Efflux Pump of Streptococcus pneumoniae 3514 and Streptococcus pyogenes 26-00
# Assay: Two plate diffusion assay for macrolide (Mef) efflux pump inhibitors, azithromycin plate versus control plate
# Assay type: cell-based
# Details: zone of inhibition in antibiotic plate (method: azithromycin 0.5 mcg/ml; footnote: levofloxacin) minus water control plate; strain not given
row,Compound,Difference in Zone diameter Z1 (mm)
1,"CCNC1CCN(c2c(F)cc3c(=O)c(C(=O)O)cn4c3c2CC[C@@H]4C)CC1(C)C (stereo partly drawn) [Example 30 (Mef), (S)-(−)-9-Fluoro-6,7-dihydro-8-(3′,3′-dimethyl-4′-ethylaminopiperidin-1-yl)-5-methyl-1-oxo-1H,5H-benzo[i,j]quinolizine-2-carboxylic acid]",8 mm
2,"C[C@H]1CCc2c(N3CCC(O)C(F)C3)c(F)cc3c(=O)c(C(=O)O)cn1c23 (stereo partly drawn) [Example 39 (Mef), (S)-(−)-9-Fluoro-6,7-dihydro-8-(4′-hydrox 3′-fluoropiperidin-1-yl)-5-methyl-1-oxo-1H,5H-benzo[i,j]quinolizine-2-carboxylic acid]",8 mm
3,"CC1CCc2c(N3CCC(O)C(C)(C)C3)ccc3c(=O)c(C(=O)O)cn1c23 (racemic) [Example 43 (Mef), (RS)-(±)-6,7-dihydro-8-(4′-hydroxy-3′,3′-dimethylpiperidin-1-yl)-5-methyl-1-oxo-1H,5H-benzo[i,j]quinolizine-2-carboxylic acid]",10 mm
4,"C[C@H]1CCOc2c(N3CCC(N)CC3)c(F)cc3c(=O)c(C(=O)O)cn1c23.Cl [Example 40 (Mef), 10-Fluoro-11-(4-aminopiperidin-1-yl)-3,4-dihydro-4(S)-methyl-8-oxo-2H,8H-pyrido[1,2,3-ef]-1,5-benzoxazepin-7-carboxylic acid, hydrochloride]",13 mm
5,"O=C(O)c1cn(-c2ccc(F)cc2F)c2nc(N3C[C@@H]4[C@H](C3)[C@H]4NCc3ccccc3)c(F)cc2c1=O [Example 23 (Mef), 1-(2,4-Difluorophenl)-6-fluoro-1,4-dihydro-7-{(1∝,5∝,6∝)-6-amino-N-benzyl-3-azabicyclo[3.1.0]hex-6-yl}-4-oxo-1,8-naphthyridine-3-carboxylic acid]",15 mm
6,"COc1c(N2CCC(NC(=O)[C@@H](NC(=O)OC(C)(C)C)C(C)C)C(C)(C)C2)c(F)cc2c(=O)c(C(=O)O)cn(C3CC3)c12 (stereo partly drawn) [Example 9 (Mef), 1-Cyclopropyl-6-fluoro-8-methoxy-1,4-dihydro-7-(3′,3′-dimethyl-4′-N-(t-butoxycarbonyl-L-valyl)-aminopiperidin-1-yl}-4-oxo-quinoline-3-carboxylic acid]",5 mm
7,"CC1(C)CN(c2nc3c(cc2F)c(=O)c(C(=O)O)cn3-c2ccc(F)cc2F)CCC1O (stereo not drawn) [Example 24 (Mef), 1-(2,4-Difluorophenyl)-6-fluoro-1,4-dihydro-7-(3′,3′-dimethyl-4′-hydroxypiperdin-1-yl)-4-oxo-naphthyridine-3-carboxylic acid]",10 mm
8,"CC1COc2c(N3CCC(O)C(CN)C3)c(F)cc3c(=O)c(C(=O)O)cn1c23 (stereo not drawn) [Example 27 (Mef), 7H-Pyrido[1,2,3-de]-1,4-benzoxazine-9-fluoro-2,3-dihydro-3-methyl-10-(3′-aminomethyl-4′-hydroxypiperidin-1′-yl)-7-oxo-6-carboxylic acid]",16 mm
9,"CCCCOC(=O)c1cn(C2CC2)c2c(OC)c(N3CCC(N)C(C)(C)C3)c(F)cc2c1=O (stereo not drawn) [Example 4 (Mef), n-Butyl 1-cyclopropyl-6-fluoro-8-methoxy-1,4-dihydro-7-(4′-amino-3′,3′-dimethyl-piperidin-1-yl)-4-oxo-quinoline-3-carboxylate]",11 mm
10,"COc1c(N2CCC(NC3CC3)CC2)c(F)c(N)c2c(=O)c(C(=O)O)cn(C3CC3)c12 [Example 33 (Mef), 5-Amino-1-cyclopropyl-6-fluoro-8-methoxy-1,4-dihydro-7-(4′-cyclopropylaminopiperidin-1-yl)-4-oxo-quinoline-3-carboxylic acid]",10 mm
11,"COc1c(N2CCC(NC(=O)[C@H](C)NC(=O)OC(C)(C)C)C(C)(C)C2)c(F)cc2c(=O)c(C(=O)O)cn(C3CC3)c12.Cl (stereo partly drawn) [Example 7 (Mef), 1-Cyclopropyl-6-fluoro-8-methoxy-1,4-dihydro-7-{4′-N-(t-butoxycarbonyl-L-alanyl)-amino-3′,3′-dimethylpiperidin-1-yl}-4-oxo-quinoline-3-carboxylic acid hydrochloride]",7 mm
12,"CCNC1CCN(c2cc3c(cc2F)c(=O)c(C(=O)O)cn3-c2ccc(F)cc2F)CC1 [Example 17 (Mef), 1-(2′,4′-Difluorophenyl)-6-fluoro-1,4-dihydro-7-(4′-ethylaminopiperidin-1′-yl)-4-oxo-quinoline-3-carboxylic acid]",9 mm
13,"Nc1c(F)c(NC2CN3CCC2CC3)c(F)c2c1c(=O)c(C(=O)O)cn2C1CC1 (stereo not drawn) [Example 14 (Mef), 5-Amino-1-cyclopropyl-6,8-difluoro-1,4-dihydro-7-(3′-quinuclidinyl-3′-yl-amino)-4-oxo-quinoline-3-carboxylic acid]",8 mm
14,"CCOC(=O)c1cn(-c2ccc(F)cc2F)c2nc(N3CCC(N)C(C)(C)C3)c(F)c(C)c2c1=O (stereo not drawn) [Example 38 (Mef), Ethyl 1-(2,4-difluorophenyl)-6-fluoro-5-methyl-1,4-dihydro-7-(4-amino-3,3-dimethylpiperidin-1-yl)-4-oxo-1,8-naphthyridine-3-carboxylate]",10 mm
15,"CC1CN(c2nc3c(cc2F)c(=O)c(C(=O)O)cn3-c2ccc(F)cc2F)CC(C)C1N (stereo not drawn) [Example 37 (Mef), 1-(2,4-difluorophenyl)-6-fluoro-1,4-dihydro-7-(4-amino-3,5-dimethylpiperidin-1-yl)-4-oxo-1,8-naphthyridine-3-carboxylic acid]",7 mm
16,"CC1CN(c2cc3c(cc2F)c(=O)c(C(=O)O)cn3C2CC2)CCC1N(C)C (stereo not drawn) [Example 32 (Mef), 1-Cyclopropyl-6-fluoro-1,4-dihydro-7-(4′-dimethylamino-3′-methylpiperidin-1-yl)-4-oxo-quinoline-3-carboxylic acid]",8 mm
17,"(RS)-(±)-6,7-dihydro-8-(cis-4′-hydroxy-3′-methylpiperidin-1-yl)-5-methyl-1-oxo-1H,5H-benzo[i,j]quinolizine-2-carboxylic acid [Example 42 (Mef)]",8 mm
18,"CN1CCN(c2cc3c(cc2F)c(=O)c(C(=O)O)cn3-c2cccc(F)c2)CC1 [Example 16 (Mef), 1-(3′-Fluorophenyl)-6-fluoro-1,4-dihydro-7-(4′-methylpiperazin-1′-yl)-4-oxo-quinoline-3-carboxylic acid]",10 mm
19,"NCC1CN(c2cc3c(cc2F)c(=O)c(C(=O)O)cn3C2CC2)CCC1O (stereo not drawn) [Example 31 (Mef), 1-Cyclopropyl-6-fluoro-1,4-dihydro-7-(3′-aminomethyl-4′-hydroxypiperidin 1-yl)-4-oxo-quinoline-3-carboxylic acid]",6 mm
20,"CCOC(=O)c1cn(-c2ccc(F)cc2F)c2nc(N3CCC(N)C(CC)C3)c(F)cc2c1=O (stereo not drawn) [Example 36 (Mef), Ethyl 1-(2,4-difluorophenyl)-6-fluoro-1,4-dihydro-7-(4-amino-3-ethylpiperidin-1-yl)-4-oxo-1,8-naphthyridine-3-carboxylate]",10 mm
21,"CNC1CCN(c2c(F)c(N)c3c(=O)c(C(=O)O)cn(C4CC4)c3c2OC)CC1(C)C (stereo not drawn) [Example 2 (Mef), 5-Amino-1-cyclopropyl-6-fluoro-8-methoxy-1,4-dihydro-7-{4′-(methylamino)-3′,3′-dimethylpiperidin-1-yl}-4-oxo-quinoline-3-carboxylic acid]",8 mm

# Reference: patent publication US7098219B2, “Inhibitors of cellular efflux pumps of microbes” (Wockhart Limited, priority 2000, dated 2006)
